Test results reported in patent US7132252B2, “Methods for detecting the interaction of compounds with cytochrome P450 using optical molecular sensors” (Invitrogen Corporation, priority 1998, dated 2006).
Blank lines part the entries; values can stand above or below the molecule they belong to.

Key:
CYP3A4 [1] = target: T1, CYP3A4 (Homo sapiens, UniProt P08684); assay: Rate of hydroxylation of BOM-09B by CYP 3A4; assay type: biochemical
Method: The racemic compound mixture (designated BOM-09B) was tested for activity with cytochrome P450 isozymes. […] The CYP 3A4 assay was performed in a 96-well plate at 37° C. in a volume of 100 μL/well. BOM-09B was diluted from a stock solution of 1 mM in acetonitrile to a 4×concentration of 80 μM in 100 mM K+ phosphate buffer of which 25 μl was added to the appropriate wells. […] The cytochrome P450 isozyme CYP3A4 was diluted to give a 2 pmol enzyme per well. Enzymic conversion of the substrate to products was allowed to proceed for 1 hour with fluorescence reads taken every 4 minutes on a fluorescence microtiter plate reader. The solution was illuminated with an 395/25 nm excitation filter and fluorescence emission was detected through a 460/40 nm the emission filter.

CYP3A4 [2] = target: T1, CYP3A4; assay: Kinetic properties of fluorescein-based fluorogenic substrates with CYP 3A4; assay type: biochemical
Method: Dibenzylfluorescein (DBF) was purchased form Gentest, Woburn, Mass. […] DBF, BOMF and DBOMF were diluted from a stock solution of 2 mM in acetonitrile to a 4×concentration of 80 μM in 100 mM K+ phosphate buffer. Seven 1:2 dilutions were made of each substrate of which 25 μl was added to the appropriate wells. […] The cytochrome P450 isozyme CYP3A4 was diluted to give a 0.5 pmol enzyme per well and added in a volume of 10 μl/well in K+ phosphate, pH 8.0. Enzymatic conversion of the substrate to products was allowed to proceed for 1 hour with fluorescence reads taken every four minutes on a fluorescence microtiter plate reader. The solution was illuminated using an 485/20 nm excitation filter and fluorescence emission was detected through a 530/25 nm the emission filter.

CYP2C9 [3] = target: T2, CYP2C9 (Homo sapiens, UniProt P11712); assay: Kinetic properties of substrate BOMF with CYP 2C9 (Tris-HCl buffer); assay type: biochemical
CYP3A4 [4] = target: T1, CYP3A4; assay: Kinetic properties of fluorogenic substrates with CYP 3A4; assay type: biochemical; settings: for v (1.25 uM): turnover rate at 1.25 uM substrate; for v (1.25 uM) / v (10 uM): — = too low to quantify; for v (10 uM): turnover rate at 10 uM substrate
Excerpt: For further understanding these terms in the context of this invention, attention is directed to FIG. 4 and the analysis of FIG. 4.
(respectively, MFC and MR).

CYP3A4 [5] = target: T1, CYP3A4; assay: Fluorescence signal from enzymatic metabolism over reagent addition background, CYP3A4; assay type: biochemical; settings: BOMR vs benzylresorufin (FIG. 8); BOMCC vs BFC (FIG. 9)
Method: (§1) The assays were performed in a 96-well plate at room temperature and at a volume of 100 μl/well. […] (See Table 11.) The enzyme was made up in the appropriate K+ phosphate buffer at 10× and 10 μl/well was-added to the appropriate wells. (See Table 11.) The plate was read at 3 minute intervals for 12 minutes to obtain a background fluorescence levels. Readings were briefly interrupted to allow for the addition of 10 μl of 10×NADP+ in K+ phosphate buffer to each well. (See Table 11.) The readings were resumed at 3 minute intervals for another 12 minutes. […] To permit quantitative comparison between sensors that were or would be metabolized to yield fluorescent products of differing optical properties, the signal intensity corresponding to each well was normalized by division with the initial signal intensity (wells containing enzyme and buffer). […] The later increase in signal, approximately four minutes after the second addition and at later time points, is believed to be due to the enzymatic conversion of the substrate to the product. […] [table]

CYP3A4 [6] = target: T1, CYP3A4; assay: Kinetics of BOMR and BR toward CYP 3A4 (FIG. 4); assay type: biochemical; settings: BOMR versus BR
Excerpt: Whichever of the four abstractable hydrogen atoms (designated H^1 and H^2 in this representation of BOMR) is removed in the initial reaction step, with reference to Reaction Scheme 1 of FIG. 1, the hydroxylation product will spontaneously decompose to the free resorufin dye. In addition, the benzyloxy group, attached to the carbon carrying the two hydrogens designated H^2, contributes an inductive electronic effect on that carbon, which can stabilize the radical formed during abstraction of one of the H^2 hydrogens by a cytochrome P450.
Optimization of assay conditions was, and is preferably, accomplished through statistically validated Design of Experiments methodologies, using the commercial software package “Design-Expert®” produced by Stat-Ease® Inc. The data shown in FIGS. 4 and 5 were obtained with initial optimization.

CYP 2B6 = target: T3, CYP 2B6 (Homo sapiens, UniProt P20813); assay: Kinetic properties of fluorogenic substrates with CYP 2B6; assay type: biochemical
T3 sequence (P20813 1-491): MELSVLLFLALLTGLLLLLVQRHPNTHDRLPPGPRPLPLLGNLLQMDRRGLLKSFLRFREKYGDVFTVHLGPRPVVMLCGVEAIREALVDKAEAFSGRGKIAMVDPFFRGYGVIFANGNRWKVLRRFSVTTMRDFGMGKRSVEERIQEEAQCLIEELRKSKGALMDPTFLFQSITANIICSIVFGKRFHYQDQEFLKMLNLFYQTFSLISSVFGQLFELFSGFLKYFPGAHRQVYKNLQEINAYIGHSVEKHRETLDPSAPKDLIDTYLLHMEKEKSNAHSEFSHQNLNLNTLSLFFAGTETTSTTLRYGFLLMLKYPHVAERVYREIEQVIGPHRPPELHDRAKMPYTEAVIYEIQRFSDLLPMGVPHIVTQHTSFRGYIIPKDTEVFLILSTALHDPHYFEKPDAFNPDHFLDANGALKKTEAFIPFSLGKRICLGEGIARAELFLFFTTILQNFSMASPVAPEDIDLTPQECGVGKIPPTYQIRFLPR

CYP3A4 [7] = target: T1, CYP3A4
CYP2D6 = CYP2D6 (Homo sapiens, UniProt P10635); assay: Apparent inhibition constants of drugs for CYP 2D6 with MOBFC as sensor
Method: CYP 2D6 was incubated with 10 μM concentrations of various known inhibitors and drug substrates and residual CYP 2D6 activity assayed with the fluorogenic substrate MOBFC. The assay was performed in a 96-well plate at room temp and at a volume of 100 μl/well. 4×enzyme buffer was prepared and 25 μl was added to each well on the plate, for final assay concentrations of 3.3 mM glucose-6-phosphate, 0.4 units/ml glucose-6-phosphate dehydrogenase and 10 mM MgCl2 in 100 mM K+ phosphate, pH 8.0. […] Six consecutive 1:3 dilutions were made and 50 μl of each was added to appropriate wells on the assay plate. The CYP2D6 was diluted to a solution of 2 pmol/10 μl in 100 mM K+ phosphate and 10 μl was added to each well. 20 μl of buffer was added to each well containing standard. The drug inhibitors were allowed to pre-incubated with the CYP 2D6 enzyme for 1 hr prior to the addition of the MOBFC substrate. […] Hydroxy-trifluoro-methylcoumarin was diluted to 100 μM in K+ phosphate buffer, and seven consecutive 1:2 dilutions were made. […] After addition of 10 μl of 13 mM NADP+ solutions to all wells the assay plate was placed into the fluorescence microtiter plate reader and fluorescence measured at 3 minute intervals for 60 minutes.

CYP3A4 [8] = target: T1, CYP3A4; assay: in vitro; settings: pH 8, % inhibition; for inhibition at 20 min, 10 µM: Condition A; for inhibition at 40 min, 10 µM: Condition B
CYP2C19 = CYP2C19 (Homo sapiens, UniProt P33261); assay: Kinetic properties of fluorogenic substrates with CYP 2C19; assay type: biochemical; settings: — = too low to quantify
CYP2C9 [9] = target: T2, CYP2C9; assay: Kinetic properties of fluorogenic substrates with CYP 2C9; assay type: biochemical; settings: — = too low to quantify
CYP2C9 [10] = target: T2, CYP2C9; assay: Fluorescence signal from enzymatic metabolism over reagent addition background, CYP2C9; assay type: biochemical; settings: OOMR and BOMCC vs MFC (FIG. 11)
Method: as §1

[11] = substrate: O=C(O)c1ccccc1-c1c2ccc(=O)cc-2oc2cc(OCOCc3ccccc3)ccc12; assay: Kinetic properties of substrate BOMF with CYP 2C9 (Tris-HCl buffer); assay type: biochemical, human; settings: other: 200 mM Tris-HCl buffer, pH 7.5
[12] = substrate: COc1ccc2cc(C#N)c(=O)oc2c1; assay: Kinetic properties of fluorogenic substrates with CYP 2C9; assay type: biochemical, human; settings: other: — = too low to quantify
[13] = substrate: COc1ccc(COc2ccc3nc4ccc(=O)cc-4oc3c2)cc1; assay: as above; assay type: biochemical, human; settings: other: — = too low to quantify
[14] = substrate: COc1ccc(COc2ccc3c(C(F)(F)F)cc(=O)oc3c2)cc1; assay: as above; assay type: biochemical, human; settings: other: — = too low to quantify
[15] = substrate: CCCCCCCCOCOc1ccc2nc3ccc(=O)cc-3oc2c1; assay: as above; assay type: biochemical, human; settings: other: — = too low to quantify
[16] = substrate: COCOc1ccc2cc(C#N)c(=O)oc2c1; assay: as above; assay type: biochemical, human; settings: other: — = too low to quantify
[17] = substrate: N#Cc1cc2ccc(OCOCc3ccccc3)cc2oc1=O; assay: as above; assay type: biochemical, human; settings: other: — = too low to quantify
[18] = turnover rate at 1.25 uM substrate
[19] = turnover rate at 10 uM substrate

T1 sequence (P08684 whole entry): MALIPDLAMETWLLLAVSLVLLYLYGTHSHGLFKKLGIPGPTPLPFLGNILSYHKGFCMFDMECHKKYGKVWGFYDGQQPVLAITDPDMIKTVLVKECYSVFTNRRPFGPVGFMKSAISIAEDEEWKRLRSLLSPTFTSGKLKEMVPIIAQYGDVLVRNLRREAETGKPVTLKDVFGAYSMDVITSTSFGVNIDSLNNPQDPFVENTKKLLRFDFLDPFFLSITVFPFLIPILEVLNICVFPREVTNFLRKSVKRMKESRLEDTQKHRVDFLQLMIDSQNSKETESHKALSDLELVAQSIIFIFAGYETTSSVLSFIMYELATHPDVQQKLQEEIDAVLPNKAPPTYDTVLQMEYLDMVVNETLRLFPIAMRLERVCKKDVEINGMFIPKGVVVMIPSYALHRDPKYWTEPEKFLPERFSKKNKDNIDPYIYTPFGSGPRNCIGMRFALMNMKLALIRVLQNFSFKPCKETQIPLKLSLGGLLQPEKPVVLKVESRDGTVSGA
CYP2C19, sequence (P33261 whole entry): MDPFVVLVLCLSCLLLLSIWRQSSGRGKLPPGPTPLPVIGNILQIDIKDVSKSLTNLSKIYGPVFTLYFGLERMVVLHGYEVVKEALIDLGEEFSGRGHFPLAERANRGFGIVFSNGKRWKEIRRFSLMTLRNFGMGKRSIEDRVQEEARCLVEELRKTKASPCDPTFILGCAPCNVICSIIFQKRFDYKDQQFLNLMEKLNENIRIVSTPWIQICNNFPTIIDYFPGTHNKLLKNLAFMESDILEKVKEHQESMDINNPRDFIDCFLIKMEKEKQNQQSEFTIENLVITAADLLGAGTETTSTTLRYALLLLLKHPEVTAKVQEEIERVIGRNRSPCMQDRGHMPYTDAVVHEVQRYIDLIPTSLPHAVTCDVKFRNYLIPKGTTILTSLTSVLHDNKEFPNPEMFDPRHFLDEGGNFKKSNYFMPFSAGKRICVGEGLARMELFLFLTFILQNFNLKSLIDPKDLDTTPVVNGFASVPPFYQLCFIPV
CYP2D6, sequence (P10635 whole entry): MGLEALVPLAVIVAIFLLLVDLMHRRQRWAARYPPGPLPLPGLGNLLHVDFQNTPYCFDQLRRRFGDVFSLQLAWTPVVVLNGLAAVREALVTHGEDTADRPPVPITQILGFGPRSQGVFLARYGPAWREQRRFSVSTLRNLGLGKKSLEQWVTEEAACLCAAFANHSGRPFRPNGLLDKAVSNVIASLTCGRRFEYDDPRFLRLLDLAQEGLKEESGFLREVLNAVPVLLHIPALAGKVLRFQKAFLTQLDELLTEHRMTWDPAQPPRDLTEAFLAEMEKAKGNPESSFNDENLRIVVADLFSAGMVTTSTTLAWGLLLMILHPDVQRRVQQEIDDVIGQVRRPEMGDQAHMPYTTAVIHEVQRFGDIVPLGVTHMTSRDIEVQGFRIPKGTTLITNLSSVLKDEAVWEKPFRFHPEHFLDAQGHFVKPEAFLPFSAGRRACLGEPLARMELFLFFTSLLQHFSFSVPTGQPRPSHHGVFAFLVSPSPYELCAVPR

type of kinetics (CYP3A4 [4]): Michaelis-Menten | v (1.25 uM) (CYP3A4 [4]): 0.55 min⁻¹ | v (10 uM) (CYP3A4 [4]): 0.88 min⁻¹ | signal to background versus prior commercially available substrate (CYP3A4 [5]): superior signal to background | CYP 3A4 turnover rate relative to BR (CYP3A4 [6]): approximately five | type of kinetics (CYP 2B6): notMichaelis-Menten | Km (CYP 2B6; human, CYP 2B6 isozyme, — = too low to quantify): 0.73 µM | v (1.25 uM) (CYP 2B6; turnover rate at 1.25 uM substrate, — = too low to quantify): 0.28 min⁻¹ | v (10 uM) (CYP 2B6; turnover rate at 10 uM substrate, — = too low to quantify): 0.71 min⁻¹ | kcat (CYP 2B6; — = too low to quantify): 0.013 s⁻¹
Molecule: O=c1ccc2nc3ccc(OCOCc4ccccc4)cc3oc-2c1 [BOMR, Benzyloxymethylresorufin]

v (1.25 uM) (CYP3A4 [4]): 0.323 min⁻¹ | v (10 uM) (CYP3A4 [4]): 0.601 min⁻¹ | v (1.25 uM) (CYP2C19; [18]): 0.1 min⁻¹ | v (10 uM) (CYP2C19; [19]): 0.13 min⁻¹ | v (1.25 uM) (CYP2C9 [9]; [18]): 0.137 min⁻¹ | v (10 uM) (CYP2C9 [9]; [19]): 0.31 min⁻¹ | signal to background versus prior commercially available substrate (CYP2C9 [10]): superior signal to background
Molecule: CCCCCCCCOCOc1ccc2nc3ccc(=O)cc-3oc2c1 [OOMR, Octyloxymethylresorufin]

Continued, molecule first:

Molecule: NC1CCCCC1NC(=O)c1cc2ccc(OCOCc3ccccc3)cc2oc1=O (racemic) [BOM-09B]
conversion rate (CYP3A4 [1]; 20 μM substrate, 37° C., 2 pmol enzyme per well): 0.75 pmol substrate/pmol enzyme·min | rate of conversion compared with BOMCC (CYP3A4 [1]; identical conditions): half that of BOMCC

Molecule: O=C(O)c1ccccc1-c1c2ccc(=O)cc-2oc2cc(OCOCc3ccccc3)ccc12 [BOMF, Benzyloxymethylfluorescein]
type of kinetics (CYP3A4 [2]): MichaelisMenten | v (1.25 uM) (CYP3A4 [2]; turnover rate at 1.25 uM substrate, 100 mM K+ phosphate, pH 8.0): 0.53 min⁻¹ | v (10 uM) (CYP3A4 [2]; turnover rate at 10 uM substrate, 100 mM K+ phosphate, pH 8.0): 3.40 min⁻¹ | type of kinetics (CYP2C9 [3]): MichaelisMenten | v (1.25 uM) (CYP2C9 [3]; turnover rate at 1.25 uM substrate, 200 mM Tris-HCl buffer, pH 7.5): 1.28 min⁻¹ | v (10 uM) (CYP2C9 [3]; turnover rate at 10 uM substrate, 200 mM Tris-HCl buffer, pH 7.5): 2.84 min⁻¹

Molecule: COc1cccc2c1C(=O)c1c(O)c3c(c(O)c1C2=O)C[C@@](O)(C(=O)CO)C[C@@H]3O[C@H]1C[C@H](N)[C@H](O)[C@H](C)O1 [Doxorubicin]
metabolism-dependent inhibitory activity against the CYP3A4 isozyme (CYP3A4 [7]): at least partial metabolism-dependent inhibitory activity | Ki (CYP2D6): 8 µM | inhibition at 20 min, 10 µM (CYP3A4 [8]; substrate BOMCC): 81% | inhibition at 40 min, 10 µM (CYP3A4 [8]; substrate BOMCC): 79% | inhibition at 20 min, 10 µM (CYP3A4 [8]; substrate BOMR): 29% | inhibition at 40 min, 10 µM (CYP3A4 [8]; substrate BOMR): 72% | inhibition at 20 min, 10 µM (CYP3A4 [8]; substrate DBOMF): 3% | inhibition at 40 min, 10 µM (CYP3A4 [8]; substrate DBOMF): 33%

B1: CYP 2C9 (Homo sapiens) (protein)
chain: MDSLVVLVLCLSCLLLLSLWRQSSGRGKLPPGPTPLPVIGNILQIGIKDISKSLTNLSKVYGPVFTLYFGLKPIVVLHGYEAVKEALIDLGEEFSGRGIFPLAERANRGFGIVFSNGKKWKEIRRFSLMTLRNFGMGKRSIEDRVQEEARCLVEELRKTKASPCDPTFILGCAPCNVICSIIFHKRFDYKDQQFLNLMEKLNENIKILSSPWIQICNNFSPIIDYFPGTHNKLLKNVAFMKSYILEKVKEHQESMDMNNPQDFIDCFLMKMEKEKHNQPSEFTIESLENTAVDLFGAGTETTSTTLRYALLLLLKHPEVTAKVQEEIERVIGRNRSPCMQDRSHMPYTDAVVHEVQRYIDLLPTSLPHAVTCDIKFRNYLIPKGTTILISLTSVLHDNKEFPNPEMFDPHHFLDEGGNFKKSKYFMPFSAGKRICVGEALAGMELFLFLTSILQNFNLKSLVDPKNLDTTPVVNGFASVPPFYQLCFIPV
Km [11]: 4.5 µM | kcat [11]: 0.075 s⁻¹ | kcat/Km [11]: 16666 M⁻¹ s⁻¹ | Km [12]: 70.9 µM | kcat [12]: 0.00667 s⁻¹ | kcat/Km [12]: 85 M⁻¹ s⁻¹ | Km [13]: 0.4 µM | kcat/Km [13]: 952 M⁻¹ s⁻¹ | Km [14]: 7.7 µM | kcat [14]: 0.00483 s⁻¹ | kcat/Km [14]: 628 M⁻¹ s⁻¹ | Km [15]: 2.6 µM | kcat [15]: 0.0067 s⁻¹ | kcat/Km [15]: 2564 M⁻¹ s⁻¹ | Km [16]: 20 µM | kcat/Km [16]: 167 M⁻¹ s⁻¹ | Km [17]: 43.0 µM | kcat [17]: 0.035 s⁻¹ | kcat/Km [17]: 814 M⁻¹ s⁻¹
